In patent publication EP4001279A1, “NOVEL SPIROPYRROLIDINE DERIVED ANTIVIRAL AGENTS” (Enanta Pharmaceuticals, Inc., priority 2020, dated 2022):

tested on: 229E human corona virus (hCoV); assay: 229E live virus assay (CPE, ATPlite readout in MRC-5 cells); assay type: cell-based, hCoV-229E; details: Human coronavirus 229E, MRC5, hCoV-229E live virus, MOI 0.05, ATPlite readout, run in duplicate

Row | Structure (SMILES) | EC50
1 | CC(C)C[C@@H](C(=O)N1C[C@]2(C[C@H]1C#N)C(=O)Nc1ccccc12)N(C)C(=O)c1cc(Cl)c(F)cc1F [Example 171] | < 100 nM
2 | CC(C)C[C@@H](C(=O)N1C[C@]2(C[C@H]1C(=O)CCl)C(=O)Nc1ccccc12)N(C)C(=O)c1cc2c(F)cc(F)c(F)c2[nH]1 [Example 159] | > 1000 nM
3 | CC(C)C[C@@H](C(=O)N1C[C@]2(C[C@H]1C#N)C(=O)Nc1ccccc12)N(C)C(=O)c1cccc(OC(F)F)c1 [Example 188] | < 100 nM
4 | CN(C(=O)c1cc2c(F)cc(F)cc2[nH]1)[C@@H](CC(C)(C)C)C(=O)N1C[C@]2(C[C@H]1C#N)C(=O)Nc1ccccc12 [Example 88] | < 100 nM
5 | CC(C)C[C@H](NC(=O)c1cc2c(F)cccc2[nH]1)C(=O)N1C[C@]2(C[C@H]1C#N)C(=O)Nc1ccccc12 [Example 27] | < 100 nM
6 | CC(C)C[C@@H](C(=O)N1C[C@]2(C[C@H]1C#N)C(=O)Nc1ccccc12)N(C)C(=O)c1cc2ccccn2n1 [Example 247] | < 100 nM
7 | CC(C)C[C@@H](C(=O)N1C[C@]2(C[C@H]1C#N)C(=O)Nc1ccccc12)N(C)C(=O)c1cccc(-c2ccc(C(F)(F)F)cc2)c1 [Example 263] | < 100 nM
8 | CN(C(=O)OCc1ccccc1)[C@@H](Cc1ccccc1)C(=O)N1C[C@]2(C[C@H]1C#N)C(=O)Nc1ccccc12 [Example 41] | > 1000 nM
9 | CC(C)C[C@@H](C(=O)N1C[C@]2(C[C@H]1C#N)C(=O)Nc1ccccc12)N(C)C(=O)c1ccc2c(Br)cccc2n1 [Example 231] | < 100 nM
10 | CN(C(=O)c1cc2c(F)cc(F)cc2[nH]1)[C@@H](CC(C)(C)O)C(=O)N1C[C@]2(C[C@H]1C#N)C(=O)Nc1ccccc12 [Example 443] | 100 to 1000 nM
11 | COc1ccc2[nH]c(C(=O)N(C)[C@@H](CC(C)C)C(=O)N3C[C@]4(C[C@H]3C#N)C(=O)Nc3ccccc34)nc2c1 [Example 249] | < 100 nM
12 | CC(C)(C)C[C@H](NC(=O)Nc1c(F)cccc1F)C(=O)N1C[C@]2(C[C@H]1C#N)C(=O)Nc1ccccc12 [Example 437] | < 100 nM
13 | CC(C)C[C@@H](C(=O)N1C[C@]2(C[C@H]1C#N)C(=O)Nc1ccccc12)N(C)C(=O)[C@H](c1cn(C)nn1)C(C)C [Example 351] | 100 to 1000 nM
14 | CCCOC[C@@H](C(=O)N1C[C@]2(C[C@H]1C#N)C(=O)Nc1ccccc12)N(C)C(=O)c1cc2c(F)cc(F)cc2[nH]1 [Example 413] | < 100 nM
15 | CC(C)C[C@@H](C(=O)N1C[C@]2(C[C@H]1C#N)C(=O)Nc1ccccc12)N(C)C(=O)c1cccc(-c2cccc(C#N)c2)c1 [Example 279] | < 100 nM
16 | CC(C)C[C@@H](C(=O)N1C[C@]2(C[C@H]1C#N)C(=O)Nc1ccc(NC(=O)C3(F)CC3)cc12)N(C)C(=O)c1cc2c(F)cc(F)cc2[nH]1 [Example 504, N-((S)-1-((3R,5'S)-5'-cyano-5-(1-fluorocyclopropane-1-carboxamido)-2-oxospiro[indoline-3,3'-pyrrolidin]-1'-yl)-4-methyl-1-oxopentan-2-yl)-4,6-difluoro-N-methyl-1H-indole-2-carboxamide] | < 100 nM
17 | CC(C)C[C@@H](C(=O)N1C[C@]2(C[C@H]1C#N)C(=O)Nc1ccccc12)N(C)C(=O)c1nc2c(F)c(F)c(F)cc2[nH]1 [Example 273] | < 100 nM
18 | CN(C(=O)c1cc2c(F)cc(F)c(F)c2[nH]1)[C@@H](CC(C)(C)O)C(=O)N1C[C@]2(C[C@H]1C#N)C(=O)Nc1ccccc12 [Example 444] | 100 to 1000 nM
19 | CC(C)C[C@@H](C(=O)N1C[C@]2(C[C@H]1C#N)C(=O)Nc1ccccc12)N(C)C(=O)c1cc2ccc(F)cc2[nH]1 [Example 50] | < 100 nM
20 | CC(C)C[C@@H](C(=O)N1C[C@]2(C[C@H]1C#N)C(=O)Nc1ccccc12)N(C)C(=O)c1cc(Cl)cc(C#N)c1 [Example 187] | < 100 nM
21 | CC(C)C[C@@H](C(=O)N1C[C@]2(C[C@H]1C#N)C(=O)Nc1ccccc12)N(C)C(=O)c1cc2ccccc2s1 [Example 207] | < 100 nM
22 | CC(C)C[C@H](NC(=O)c1cc2c(F)cccc2[nH]1)C(=O)N1C[C@]2(C[C@H]1C#N)C(=O)Nc1c(F)cccc12 [Example 28] | < 100 nM
23 | N#C[C@@H]1C[C@@]2(CN1C(=O)[C@H](CC1CC1)NC(=O)OCc1c(F)cccc1F)C(=O)Nc1ccc(Cl)cc12 [Example 492, 2,6-difluorobenzyl ((S)-1-((3R,5'S)-5-chloro-5'-cyano-2-oxospiro[indoline-3,3'-pyrrolidin]-1'-yl)-3-cyclopropyl-1-oxopropan-2-yl)carbamate] | 100 to 1000 nM
24 | CN(C(=O)C(F)(F)c1cccnc1)[C@@H](CC(C)(C)F)C(=O)N1C[C@]2(C[C@H]1C#N)C(=O)Nc1ccc(Cl)cc12 [Example 482] | < 100 nM
25 | CC(C)C[C@H](NC(=O)NCc1ccccc1)C(=O)N1C[C@]2(C[C@H]1C#N)C(=O)Nc1ccccc12 [Example 122] | 100 to 1000 nM
26 | CC(C)C[C@@H](C(=O)N1C[C@]2(C[C@H]1C#N)C(=O)Nc1ccccc12)N(C)C(=O)c1ccc2cc(F)ccc2c1 [Example 222] | < 100 nM
27 | CN(C(=O)c1cc2c(F)cccc2[nH]1)[C@@H](CC(C)(C)C)C(=O)N1C[C@]2(C[C@H]1C#N)C(=O)Nc1ccccc12 [Example 87] | < 100 nM

Row | Structure (SMILES) | EC50
28 | CC(C)C[C@@H](C(=O)N1C[C@]2(C[C@H]1C#N)C(=O)Nc1ccccc12)N(C)C(=O)c1ccc(F)cc1Cl [Example 61] | > 1000 nM
29 | CC(C)C[C@@H](C(=O)N1C[C@]2(C[C@H]1C(=O)CO)C(=O)Nc1ccccc12)N(C)C(=O)c1cc2c(F)cc(F)cc2[nH]1 [Example 157] | 100 to 1000 nM
30 | Cc1cc2cc(C(=O)N(C)[C@@H](CC(C)C)C(=O)N3C[C@]4(C[C@H]3C#N)C(=O)Nc3ccccc34)cc(OC3CC3)c2nc1C [Example 323] | 100 to 1000 nM
31 | CC(C)(C)C[C@H](NC(=O)OC(C)(C)c1ccc(F)cc1)C(=O)N1C[C@]2(C[C@H]1C#N)C(=O)Nc1ccc(Cl)cc12 [Example 496] | > 1000 nM
32 | CC(C)(C)[C@H](NC(=O)c1cc2c(F)cccc2[nH]1)C(=O)N1C[C@]2(C[C@H]1C#N)C(=O)Nc1ccccc12 [Example 18] | 100 to 1000 nM
33 | COc1cc(C(=O)N(C)[C@@H](CC(C)C)C(=O)N2C[C@]3(C[C@H]2C#N)C(=O)Nc2ccccc23)nc2ccccc12 [Example 258] | < 100 nM
34 | CC(C)C[C@@H](C(=O)N1C[C@]2(C[C@H]1C#N)C(=O)Nc1ccccc12)N(C)C(=O)c1c(Cl)cc(Cl)cc1Cl [Example 185] | < 100 nM
35 | CC(C)(C)C[C@H](NC(=O)c1cn(-c2ccc(Cl)cc2)nn1)C(=O)N1C[C@]2(C[C@H]1C#N)C(=O)Nc1ccccc12 [Example 140] | < 100 nM
36 | CC(C)C[C@@H](C(=O)N1C[C@]2(C[C@H]1C(=O)O)C(=O)Nc1ccc(Cl)cc12)N(C)C(=O)c1cc2c(F)cc(F)cc2[nH]1 [Example 497, (3R,5'S)-5-chloro-1'-(N-(4,6-difluoro-1H-indole-2-carbonyl)-N-methyl-L-leucyl)-2-oxospiro[indoline-3,3'-pyrrolidine]-5'-carboxylic acid] | > 1000 nM
37 | COc1cc(C#N)cc2[nH]c(C(=O)N[C@@H](CC(C)C)C(=O)N3C[C@]4(C[C@H]3C#N)C(=O)Nc3ccccc34)cc12 [Example 26] | < 100 nM
38 | Cc1cc2cc(C(=O)N[C@@H](CC(C)(C)C)C(=O)N3C[C@]4(C[C@H]3C#N)C(=O)Nc3ccccc34)cc(Cl)c2nc1C [Example 147] | < 100 nM
39 | N#C[C@@H]1C[C@@]2(CN1C(=O)[C@H](CC1CC1)NC(=O)OCc1ccc(F)cc1F)C(=O)Nc1ccc(Cl)cc12 [Example 493] | 100 to 1000 nM
40 | CC(C)C[C@@H](C(=O)N1C[C@]2(C[C@H]1C#N)C(=O)Nc1ccccc12)N(C)C(=O)c1ccc(F)c(C(F)(F)F)c1 [Example 177] | < 100 nM
41 | CC(C)C[C@@H](C(=O)N1C[C@]2(C[C@H]1C#N)C(=O)Nc1ccccc12)N(C)C(=O)c1cccc2ncccc12 [Example 214] | < 100 nM
42 | CC(C)C[C@@H](C(=O)N1C[C@]2(C[C@H]1C#N)C(=O)Nc1ccccc12)N(C)C(=O)c1ccncc1 [Example 194] | < 100 nM
43 | CC(C)C[C@@H](C(=O)N1C[C@]2(C[C@H]1C#N)C(=O)Nc1ccccc12)N(C)C(=O)c1cc2c(F)cc(F)c(F)c2[nH]1 [Example 52] | < 100 nM
44 | CC(C)C[C@@H](C(=O)N1C[C@]2(C[C@H]1C#N)C(=O)Nc1ccccc12)N(C)C(=O)c1ccc2cnn(C)c2c1 [Example 224] | < 100 nM
45 | CC(C)C[C@@H](C(=O)N1C[C@]2(C[C@H]1C#N)C(=O)Nc1ccccc12)N(C)C(=O)c1cccc(-c2ccc(C#N)cc2)c1 [Example 265] | 100 to 1000 nM
46 | CN(C(=O)OCc1ccccc1)[C@@H](CC1CCC1)C(=O)N1C[C@]2(C[C@H]1C#N)C(=O)Nc1ccccc12 [Example 89] | 100 to 1000 nM
47 | CC(C)(F)C[C@H](NC(=O)c1cc2ccccn2n1)C(=O)N1C[C@]2(C[C@H]1C#N)C(=O)Nc1ccc(Cl)cc12 [Example 446] | 100 to 1000 nM
48 | [2H]C([2H])([2H])N(C(=O)C1(c2ccncc2)CC1)[C@@H](CC(C)(C)F)C(=O)N1C[C@]2(C[C@H]1C#N)C(=O)Nc1ccc(Cl)cc12 [Example 475] | 100 to 1000 nM
49 | CC(C)C[C@@H](C(=O)N1C[C@]2(C[C@H]1C#N)C(=O)Nc1ccccc12)N(C)C(=O)c1ccn[nH]1 [Example 202] | < 100 nM
50 | COc1cccc2[nH]c(C(=O)N[C@@H](CC(C)C)C(=O)N3C[C@]4(C[C@H]3C(O)S(=O)(=O)O)C(=O)Nc3ccccc34)cc12 (stereo partly drawn) [Example 29] | < 100 nM
51 | CC(C)C[C@@H](C(=O)N1C[C@]2(C[C@H]1C#N)C(=O)Nc1ccccc12)N(C)C(=O)c1cc(F)ccn1 [Example 197] | < 100 nM
52 | CC(C)C[C@@H](C(=O)N1C[C@]2(C[C@H]1C#N)C(=O)Nc1ccccc12)N(C)C(=O)c1ccc(F)c(F)c1 [Example 178] | < 100 nM
53 | CC(C)C[C@@H](C(=O)N1C[C@]2(C[C@H]1C#N)C(=O)Nc1ccccc12)N(C)C(=O)c1ccc(F)c(-c2ccccc2)c1 [Example 272] | < 100 nM
54 | CN(C(=O)C1(c2cccnc2)CC1)[C@@H](CC(C)(C)F)C(=O)N1C[C@]2(C[C@H]1C#N)C(=O)Nc1ccc(Cl)cc12 [Example 479] | 100 to 1000 nM
